Reference: patent publication US5955500A (G. D. Searle & Co., priority 1997, dated 1999)
Several values for one entry are separate records, joined by “and”; a condition that tells them apart may be missing. Equal values may be shown once. Read-outs that look alike come from different tables or passages of the source.

Legend:
canine heart = conditions: for AH time / Heart rate / Mean arterial pressure: mean ± SE
Protocol: Fourteen adult mongrel dogs of either sex weighing between 19 and 25 kg were prepared for chronic electrophysiologic investigation by implanting epicardial electrodes and an indwelling aortic catheter. The dogs were fasted overnight and initially anesthetized with halothane on the day of surgery. After tracheal intubation, anesthesia was maintained with isoflurane and oxygen via positive pressure ventilation to keep end tidal carbon dioxide within the normal range. Muscular relaxation was induced by pancuronium. A right thoracotomy was performed in the fifth intercostal space. Three bipolar electrode pairs were sutured to the epicardial surface of the right atrial appendage and on the right and left ventricular apex (FIG. 5). A bipolar electrode was sutured to the right atrium close to the anatomical region of the sinoatrial node. A bipolar plunge electrode was placed into base of the interventricular septum to record a His bundle electrogram. An indwelling arterial catheter was placed into the aorta through the left femoral artery after surgical exposure of the artery at the inner side of the hind limb. All electrode leads were subcutaneously tunneled and exited through the skin between the scapulae. Incisions were closed in anatomic fashion and standard postoperative methods of analgesia were provided with 0.015 mg/kg of buprenorphine (Buprenex®, Reckitt & Colman, Hull, UK) and two times of 25 mg/kg cefazolin (Cefazolin Sodium®, SoloPak Laboratories, Elk Groove Village, Ill.) and dogs were allowed to recover from surgery for a period of seven days prior to testing.
Electrical signals from the bipolar electrodes, after suitable amplification in a custom built preamplifier (gain 1000), were filtered in a separate custom designed and built common mode rejection amplifier with a bandpass filter of 10-1000 Hz and individually adjusted for signal strength (maximal gain 400). […] Right atrial appendage (RA), right ventricular apex (RVA) and His bundle electrograms (HB) were recorded, simultaneously. […] All measurements of conduction times were made during spontaneous sinus rhythm.
The His bundle electrode (HBE) was advanced into the base of the interatrial septum from the aortic root. The electrode was advanced from a point located just behind and to the right of the origin of the right coronary artery. The HBE was slowly advanced parallel to the aorta, inferiorly and slightly anteriorly until a well discernible His potential was recorded. AV conduction (AH) interval was measured as the time difference (ms) between the onset of the initial rapid deflection in the RA electrogram to the beginning of the His potential in the HB electrogram. His-ventricular (HV) conduction time interval (ms) was measured from the beginning of the His potential (HBE) to the initial deflection of the QRS complex wave (earliest left ventricular activation) in a simultaneously recorded surface ECG lead II.
As an indicator of automaticity, sinus node recovery time (SNRT) was determined by pacing the right atrial appendage (30 s at 180 and 200 beats/min at 2 msec pulse duration; 2×threshold). SNRT was measured from the last pacing spike to the first spontaneous atrial activity on the His bundle electrogram after cessation of pacing (ms).
A timed extrastimulus (S2) was delivered 300 ms after the preceding pacing spike (S1).
Verapamil was dissolved in 5% dextrose and water ([…]).
During the postoperative period, each dog was trained to stand quietly in a sling during electrophysiological monitoring. Prior to measurement, electrical signals in each dog were monitored to verify the absence of spontaneous arrhythmias other-than normal respiratory sinus arrhythmias.
From the resting dog, 5 channel records were obtained at a sampling rate of 1 kHz per channel for 7 min to determine the following conduction intervals: AH, HV, QRS, QT and HR. A corrected QT interval [QTc=QT interval in ms/ (R-R interval in s)^1/2 ] was also calculated.

[1] = pH 5, individual replicates

COc1ccc(CCN(C)CCCC(C#N)(c2ccc(OC)c(OC)c2)C(C)C)cc1OC (racemic) [80/20S]
AH time (canine heart; 0.1 mg/kg i.v., 0 min): 90 ± 4 ms | Heart rate (canine heart; 0.1 mg/kg i.v., 0 min): 125 ± 8 beats per min | Mean arterial pressure (canine heart; 0.1 mg/kg i.v., 0 min): 96 ± 3 mmHg | AH time (canine heart; 0.1 mg/kg i.v., 1 min): 95 ± 5 ms | Heart rate (canine heart; 0.1 mg/kg i.v., 1 min): 126 ± 7 beats per min | Mean arterial pressure (canine heart; 0.1 mg/kg i.v., 1 min): 99 ± 3 mmHg | AH time (canine heart; 0.1 mg/kg i.v., 2 min): 97 ± 5 ms | Heart rate (canine heart; 0.1 mg/kg i.v., 2 min): 119 ± 7 beats per min | Mean arterial pressure (canine heart; 0.1 mg/kg i.v., 2 min): 98 ± 3 mmHg | AH time (canine heart; 0.1 mg/kg i.v., 3 min): 98 ± 5 ms | Heart rate (canine heart; 0.1 mg/kg i.v., 3 min): 115 ± 7 beats per min | Mean arterial pressure (canine heart; 0.1 mg/kg i.v., 3 min): 99 ± 3 mmHg | AH time (canine heart; 0.1 mg/kg i.v., 4 min): 96 ± 5 ms | Heart rate (canine heart; 0.1 mg/kg i.v., 4 min): 116 ± 8 beats per min | Mean arterial pressure (canine heart; 0.1 mg/kg i.v., 4 min): 100 ± 3 mmHg | AH time (canine heart; 0.1 mg/kg i.v., 5 min): 96 ± 6 ms | Heart rate (canine heart; 0.1 mg/kg i.v., 5 min): 123 ± 7 beats per min | Mean arterial pressure (canine heart; 0.1 mg/kg i.v., 5 min): 100 ± 3 mmHg | AH time (canine heart; 0.2 mg/kg i.v., 0 min): 99 ± 5 ms | Heart rate (canine heart; 0.2 mg/kg i.v., 0 min): 136 ± 9 beats per min | Mean arterial pressure (canine heart; 0.2 mg/kg i.v., 0 min): 89 ± 2 mmHg | AH time (canine heart; 0.2 mg/kg i.v., 1 min): 111 ± 8 ms | Heart rate (canine heart; 0.2 mg/kg i.v., 1 min): 134 ± 8 beats per min | Mean arterial pressure (canine heart; 0.2 mg/kg i.v., 1 min): 95 ± 4 mmHg | AH time (canine heart; 0.2 mg/kg i.v., 2 min): 115 ± 9 ms | Heart rate (canine heart; 0.2 mg/kg i.v., 2 min): 129 ± 7 beats per min | Mean arterial pressure (canine heart; 0.2 mg/kg i.v., 2 min): 94 ± 4 mmHg | AH time (canine heart; 0.2 mg/kg i.v., 3 min): 113 ± 8 ms | Heart rate (canine heart; 0.2 mg/kg i.v., 3 min): 124 ± 7 beats per min | Mean arterial pressure (canine heart; 0.2 mg/kg i.v., 3 min): 97 ± 4 mmHg | AH time (canine heart; 0.2 mg/kg i.v., 4 min): 115 ± 9 ms | Heart rate (canine heart; 0.2 mg/kg i.v., 4 min): 125 ± 8 beats per min | Mean arterial pressure (canine heart; 0.2 mg/kg i.v., 4 min): 99 ± 3 mmHg | AH time (canine heart; 0.2 mg/kg i.v., 5 min): 116 ± 9 ms | Heart rate (canine heart; 0.2 mg/kg i.v., 5 min): 123 ± 9 beats per min | Mean arterial pressure (canine heart; 0.2 mg/kg i.v., 5 min): 98 ± 3 mmHg | AH time (canine heart; 0.4 mg/kg i.v., 0 min): 111 ± 5 ms | Mean arterial pressure (canine heart; 0.4 mg/kg i.v., 0 min): 87 ± 3 mmHg | Heart rate (canine heart; 0.4 mg/kg i.v., 0 min, listed as 80/205): 155 ± 12 beats per min | AH time (canine heart; 0.4 mg/kg i.v., 1 min): 121 ± 4 ms | Mean arterial pressure (canine heart; 0.4 mg/kg i.v., 1 min): 95 ± 3 mmHg | Heart rate (canine heart; 0.4 mg/kg i.v., 1 min, listed as 80/205): 153 ± 11 beats per min | AH time (canine heart; 0.4 mg/kg i.v., 2 min): 123 ± 5 ms | Mean arterial pressure (canine heart; 0.4 mg/kg i.v., 2 min): 97 ± 3 mmHg | Heart rate (canine heart; 0.4 mg/kg i.v., 2 min, listed as 80/205): 149 ± 10 beats per min | AH time (canine heart; 0.4 mg/kg i.v., 3 min): 125 ± 6 ms | Mean arterial pressure (canine heart; 0.4 mg/kg i.v., 3 min): 101 ± 3 mmHg | Heart rate (canine heart; 0.4 mg/kg i.v., 3 min, listed as 80/205): 147 ± 10 beats per min | AH time (canine heart; 0.4 mg/kg i.v., 4 min): 127 ± 6 ms | Mean arterial pressure (canine heart; 0.4 mg/kg i.v., 4 min): 103 ± 3 mmHg | Heart rate (canine heart; 0.4 mg/kg i.v., 4 min, listed as 80/205): 140 ± 7 beats per min | AH time (canine heart; 0.4 mg/kg i.v., 5 min): 129 ± 6 ms | Mean arterial pressure (canine heart; 0.4 mg/kg i.v., 5 min): 103 ± 3 mmHg | Heart rate (canine heart; 0.4 mg/kg i.v., 5 min, listed as 80/205): 135 ± 9 beats per min | Occurrence of second and third degree AV conduction block (canine heart; 0.4 mg/kg i.v., listed as 80R/20S-verapamil): 3 animals

COc1ccc(CCN(C)CCCC(C#N)(c2ccc(OC)c(OC)c2)C(C)C)cc1OC (racemic) [compound 70]
Concentration in octanol [1]: 4350 ng/mL and 4200 ng/mL and 4240 ng/mL | Concentration in water [1]: 5810 ng/mL and 6000 ng/mL and 5380 ng/mL
